# System: 556581-035-R-J1-PDC complex spheroid growth
# Assay: Anticancer human tumor 556581-035-R-J1-PDC patient-derived ovarian carcinoma cell line growth inhibition [AhR]
# Settings: for IC50: curve of first compound; for viability, T/C: stronger effect = lower value
# Source text: Multicellular complex tumor spheroid response to aryl hydrocarbon receptor antagonists in combination with a variety of drugs and investigational agents in selected tumor cell lines
# The current study was undertaken to assess response to aryl hydrocarbon receptor antagonists in combination with standard-of-care drugs and investigational agents in solid tumor complex spheroid models. Complex spheroids include a stromal component modeled by human endothelial cells (HUVEC) and fibroblasts modeled by human mesenchymal stem cells (MSCs). The concentration ranges selected for each drug and investigational agent were based upon clinically achievable concentrations if the clinical Cmax of the agent was known.
# Compounds. The drugs and investigational agents: BAY 2416964 (NSC825713), GNF351 (NSC835774), CH-223191 (NSC835775), CPI-455 (NSC825282), aza-TdCyd (NSC777586), decitabine (NSC127716), belinostat (NSC758774), entinostat (NSC756642), pevonedistat (NSC761192), tazemetostat (NSC777109), talazoparib (NSC765396), olaparib (NSC753686), selinexor (NSC780203), nedisertib (M3814, NSC802822), bortezomib (NSC756655), venetoclax (NSC766270), doxorubicin (NSC123127), elimusertib (BAY189344, NSC800525), ceralasertib (AZD6738, NSC777638), TAK-243 (NSC785004), alisertib (NSC759677), etoposide (NSC141540), topotecan (NSC609699), eribulin (NSC707389), gemcitabine (NSC613327), carboplatin (NSC241240), cisplatin (NSC119875), and SN-38 (NSC673596) were obtained from the National Cancer Institute (NCI) Developmental Therapeutics Program Chemical Repository (32). The FDA-approved anticancer drug set is available from the Developmental Therapeutics Program at https://dtp.cancer.gov/organization/dscb/obtaining/available plates.htm. […] The stock solutions were prepared in dimethyl sulfoxide (DMSO, Sigma-Aldrich, St. Louis, MO, cat. D2650), except for the platinum compounds which were prepared in saline (Quality Biological, Gaithersburg, MD, cat. 114-055-101), at 800-fold the tested concentration and stored at -70 degrees C prior to their use. All drugs and investigational agents were tested over a range starting from a high concentration at or near the clinical Cmax and decreasing in half-log increments. If the clinical Cmax for an agent had not been determined, the highest concentration tested was 10 microM (Table 1).
# Cell Culture. All cells were maintained in an incubator at 37 degrees C and 5% CO2 with 95% humidity. The PDC lines were cultured according to standard operating procedures established by the NCI PDMR (https://pdmr.cancer.gov). Briefly, all PDCs were thawed and cultured in Matrigel-coated flasks prepared with a working solution of 1X Ham's F-12 nutrient mix, without supplementation (Invitrogen, Waltham, MA, cat. 11765054), 100 U/mL penicillin-streptomycin (Invitrogen, cat. 15140122), and 2.5% Matrigel (Corning Inc., Corning, NY, cat. 354248) for the first three passages. All PDCs were cultured in complete DMEM/F-12 media containing advanced DMEM/F-12 (Invitrogen, cat. 12634028), 4.9% defined fetal bovine serum, heat inactivated (HyClone Laboratories Inc., Logan, UT, cat. SH30070.03HI), 389 ng/mL hydrocortisone (Sigma-Aldrich, cat. H4001), 9.7 ng/mL human EGF recombinant protein (Invitrogen, cat. PHG0313), 23.4 microg/mL adenine (Sigma-Aldrich, cat. A2786), 97.3 U/mL penicillin-streptomycin (Invitrogen, cat. 15140122), 1.9 mM L-glutamine (Invitrogen, cat. 25030081), and 9.7 microM Y-27632 dihydrochloride (Tocris Bioscience, Bristol, United Kingdom, cat. 1254). The PDCs were cultured in complete DMEM/F12 media without 10 microM Y-27632 dihydrochloride for at least two passages prior to the screen. The established cell lines NCI-H1341 and […] were cultured in DMEM/F-12, HEPES (Invitrogen, cat. 11330032), 5% defined fetal bovine serum (HyClone Laboratories Inc., cat. SH30070.03), ITS premix universal culture supplement [insulin (5 microg/mL), transferrin (5 microg/mL), and selenious acid (5 ng/mL)] […]
# 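Throughout, for viability, T/C: compound exposure lasted 7 days; 100% = DMSO vehicle control growth.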
compound,measurement,setting,value
Nc1ncn(C2CC(O)C(CO)S2)c(=O)n1 (stereo not given) + Cc1cncc(-c2nc(NCCc3c[nH]c4ccccc34)c3ncn(C(C)C)c3n2)c1,IC50,second compound 0.1 µM,> 0.3 µM
same,IC50,second compound 0.316 µM,> 0.3 µM
same,IC50,second compound 1 µM,> 0.3 µM
same,IC50,second compound 3.16 µM,> 0.3 µM
same,IC50,second compound 10 µM,> 0.3 µM
same,"viability, T/C","second compound 0.1 µM, first compound 0.000949 µM",99.3%
same,"viability, T/C","second compound 0.1 µM, first compound 0.003 µM",102%
same,"viability, T/C","second compound 0.1 µM, first compound 0.00949 µM",88.9%
same,"viability, T/C","second compound 0.1 µM, first compound 0.03 µM",93.8%
same,"viability, T/C","second compound 0.1 µM, first compound 0.0949 µM",82%
same,"viability, T/C","second compound 0.1 µM, first compound 0.3 µM",67.3%
same,"viability, T/C","second compound 0.316 µM, first compound 0.000949 µM",113%
same,"viability, T/C","second compound 0.316 µM, first compound 0.003 µM",109%
same,"viability, T/C","second compound 0.316 µM, first compound 0.00949 µM",111%
same,"viability, T/C","second compound 0.316 µM, first compound 0.03 µM",93.2%
same,"viability, T/C","second compound 0.316 µM, first compound 0.0949 µM",81%
same,"viability, T/C","second compound 0.316 µM, first compound 0.3 µM",68%
same,"viability, T/C","second compound 1 µM, first compound 0.000949 µM",116%
same,"viability, T/C","second compound 1 µM, first compound 0.003 µM",109%
same,"viability, T/C","second compound 1 µM, first compound 0.00949 µM",99.5%
same,"viability, T/C","second compound 1 µM, first compound 0.03 µM",106%
same,"viability, T/C","second compound 1 µM, first compound 0.0949 µM",85.7%
same,"viability, T/C","second compound 1 µM, first compound 0.3 µM",80.4%
same,"viability, T/C","second compound 3.16 µM, first compound 0.000949 µM",87.7%
same,"viability, T/C","second compound 3.16 µM, first compound 0.003 µM",84.8%
same,"viability, T/C","second compound 3.16 µM, first compound 0.00949 µM",95.8%
same,"viability, T/C","second compound 3.16 µM, first compound 0.03 µM",94.3%
same,"viability, T/C","second compound 3.16 µM, first compound 0.0949 µM",79.5%
same,"viability, T/C","second compound 3.16 µM, first compound 0.3 µM",72.9%
same,"viability, T/C","second compound 10 µM, first compound 0.000949 µM",84.7%
same,"viability, T/C","second compound 10 µM, first compound 0.003 µM",86.7%
same,"viability, T/C","second compound 10 µM, first compound 0.00949 µM",91.6%
same,"viability, T/C","second compound 10 µM, first compound 0.03 µM",87.3%
same,"viability, T/C","second compound 10 µM, first compound 0.0949 µM",79.4%
same,"viability, T/C","second compound 10 µM, first compound 0.3 µM",72.6%
O=C(c1cc(Cc2n[nH]c(=O)c3ccccc23)ccc1F)N1CCN(C(=O)C2CC2)CC1 + Cc1cncc(-c2nc(NCCc3c[nH]c4ccccc34)c3ncn(C(C)C)c3n2)c1,IC50,second compound 0.1 µM,> 10 µM
same,IC50,second compound 0.316 µM,> 10 µM
same,IC50,second compound 1 µM,> 10 µM
same,IC50,second compound 3.16 µM,> 10 µM
same,IC50,second compound 10 µM,> 10 µM
same,"viability, T/C","second compound 0.1 µM, first compound 0.0316 µM",98.4%
same,"viability, T/C","second compound 0.1 µM, first compound 0.1 µM",107%
same,"viability, T/C","second compound 0.1 µM, first compound 0.316 µM",101%
same,"viability, T/C","second compound 0.1 µM, first compound 1 µM",89.6%
same,"viability, T/C","second compound 0.1 µM, first compound 3.16 µM",94.6%
same,"viability, T/C","second compound 0.1 µM, first compound 10 µM",82%
same,"viability, T/C","second compound 0.316 µM, first compound 0.0316 µM",112%
same,"viability, T/C","second compound 0.316 µM, first compound 0.1 µM",105%
same,"viability, T/C","second compound 0.316 µM, first compound 0.316 µM",104%
same,"viability, T/C","second compound 0.316 µM, first compound 1 µM",91.2%
same,"viability, T/C","second compound 0.316 µM, first compound 3.16 µM",91.9%
same,"viability, T/C","second compound 0.316 µM, first compound 10 µM",78.9%
same,"viability, T/C","second compound 1 µM, first compound 0.0316 µM",108%
same,"viability, T/C","second compound 1 µM, first compound 0.1 µM",102%
same,"viability, T/C","second compound 1 µM, first compound 0.316 µM",99.3%
same,"viability, T/C","second compound 1 µM, first compound 1 µM",95.9%
same,"viability, T/C","second compound 1 µM, first compound 3.16 µM",98.8%
same,"viability, T/C","second compound 1 µM, first compound 10 µM",90.2%
same,"viability, T/C","second compound 3.16 µM, first compound 0.0316 µM",104%
same,"viability, T/C","second compound 3.16 µM, first compound 0.1 µM",108%
same,"viability, T/C","second compound 3.16 µM, first compound 0.316 µM",95.3%
same,"viability, T/C","second compound 3.16 µM, first compound 1 µM",89.2%
same,"viability, T/C","second compound 3.16 µM, first compound 3.16 µM",94.3%
same,"viability, T/C","second compound 3.16 µM, first compound 10 µM",81.3%
same,"viability, T/C","second compound 10 µM, first compound 0.0316 µM",90%
same,"viability, T/C","second compound 10 µM, first compound 0.1 µM",95.4%
same,"viability, T/C","second compound 10 µM, first compound 0.316 µM",95.2%
same,"viability, T/C","second compound 10 µM, first compound 1 µM",86.2%
same,"viability, T/C","second compound 10 µM, first compound 3.16 µM",92.7%
same,"viability, T/C","second compound 10 µM, first compound 10 µM",83.2%

# From PubChem BioAssay AID1918999 (Molecular Pharmacology Branch, DTP, NCI, 2023)
